What was measured:
HeLa cells = test: Apoptosis detection by Annexin V-PE and 7-AAD staining, flow cytometry; format: cell-based, human; settings: 5 and 10 µM, 48 h
Experimental: In order to determine whether the anti-proliferative effects of 11, 12 and 13 were associated with their ability to induce apoptosis in HeLa cells, the induction of phosphatidylserine externalization by compounds 11, 12 and 13 was examined by flow cytometric analysis. The cells were treated with 2.5, 5 and 10 µM concentrations of 11, 12 and 13 for 24 and 48 h and stained with Annexin V-PE and 7-AAD. […] After 24 h of treatment, a significant increase in the early apoptotic population of cells was visible starting from the concentration of 5 µM.
Detection of apoptosis by Annexin V-PE and 7-AAD staining: Apoptosis induction was detected with an Annexin V-PE Apoptosis Detection Kit I (BD Biosciences, Belgium) according to the manufacturer’s instructions. The cells were treated with 11–13 (2.5, 5 and 10 µM) for 24 and 48 h. Following treatment, the cells were collected and stained with Annexin V-phycoerythrin (PE) and 7-amino-actinomycin (7-AAD) in Annexin-binding buffer for 15 min at RT in the dark. The acquisition was performed on a FACSCalibur cytometer (BD), and the data were analyzed with Flowing software (version 2.5).

[1] = test system: caspase activity in HeLa cells; test: Caspase activity determination (FLICA, FAM-VAD-FMK), flow cytometry; format: cell-based, human; settings: HeLa, 5, 7 and 10 µM, 24 h
Experimental: Apoptosis induction was further determined by examining the effects of 11, 12 and 13 on caspase activation in HeLa cells. Caspase activity induction was determined with the use of the fluorescently labeled caspase inhibitor-FAM-VAD-FMK (a carboxyfluorescein derivative of valylalanylaspartic acid fluoromethyl ketone). The caspase inhibitor binds to active caspases inhibiting their enzymatic activity, thus allowing caspase activity quantification through determining the fluorescent intensity of the bound inhibitor. […] Increased caspase activation was shown by the increased fluorescence of the caspase inhibitor in the cell population, as indicated in Figure 6.
Caspase Activity Determination: Caspase activity was determined with the FLICA Apoptosis Detection Kit (Immunochemistry Technologies) according to the manufacturer’s instructions. The cells were treated with comp. 11, 12 and 13 (5, 7 and 10 µM) for 24 h, after which the cells were collected and suspended in a buffer containing the caspase inhibitor, i.e., a carboxyfluorescein-labeled fluoromethyl ketone peptide. The cells were subsequently incubated for 1 h at 37 °C under 5% CO2 and, next, they were washed with a washing buffer. The fluorescence intensity of fluorescein was determined by flow cytometry (BD FACSCalibur), and caspase activity was determined as the amount of fluorescence emitted from the caspase inhibitors bound to the caspases. The data were analyzed with Flowing software (version 2.5).

Row | Structure (SMILES) | cells in the late stage of apoptosis (HeLa cells) | caspase activity induction [1]
1 | Cc1cc(S(=O)(=O)NC(=N)n2ccn(C)c2=S)c(SCc2ccc(Cl)cc2)cc1Cl [Compound 11, 4-Chloro-N-[imino(3-methyl-2-thioxo-2,3-dihydro-1H-imidazol-1-yl)methyl]-5-methyl-2-(4-chlorobenzylthio)benzenesulfonamide] | significant increase in cells in the late stage of apoptosis | induced caspase activity in HeLa cells in a dose-dependent manner
2 | Cc1cc(S(=O)(=O)NC(=N)n2ccn(C)c2=S)c(SCc2cc3c(cc2Cl)OCO3)cc1Cl [Compound 12] | significant increase in cells in the late stage of apoptosis | induced caspase activity in HeLa cells in a dose-dependent manner
3 | Cc1cc(S(=O)(=O)NC(=N)n2ccn(C)c2=S)c(SCc2cccc3ccccc23)cc1Cl [Compound 13, 4-Chloro-N-[imino(3-methyl-2-thioxo-2,3-dihydro-1H-imidazol-1-yl)methyl]-5-methyl-2-(naphthalen-1-ylmethylthio)benzenesulfonamide] | significant increase in cells in the late stage of apoptosis | induced caspase activity in HeLa cells in a dose-dependent manner

Source: paper PMC10253812, “Novel 2-alkythio-4-chloro-N-[imino(heteroaryl)methyl]benzenesulfonamide Derivatives: Synthesis, Molecular Structure, Anticancer Activity and Metabolic Stability” (International Journal of Molecular Sciences, 2023)
